25 molecules from ChEMBL document CHEMBL1133887, “Anti-influenza virus activities of 2-alkoxyimino-n-(2-isoxazolin-3-ylmethyl)acetamides” (Bioorg Med Chem Lett, 2001) can be followed below.

The nature of assay [1]: Antiviral activity against A/WSN/33 strain of influenza virus (H1N1 subtype) in MDBK cells using cell protection assay; expressed as 10-100 ppm. It counts as functional, cell-based. As to conditions: Bos taurus.
Assay [2] can be described thus: Evaluated for cytotoxic activity in MDBK cells. Conditions: Bos taurus. The class given is functional.
The next assay in a line: cells. The class given is functional, cell-based. As to conditions: Bos taurus, MDBK.
Assay [3] is described as follows: Antiviral activity against A/WSN/33 strain of influenza virus (H1N1 subtype) in MDBK cells using cell protection assay; expressed as 1-10 ppm. It counts as functional, cell-based. Conditions: Bos taurus.
Assay [4] in a line: The compound was evaluated for cytotoxic activity in MDBK cells; expressed as >100 ppm. It counts as functional. As to conditions: Bos taurus.
Assay [5] can be described thus: Antiviral activity against A/WSN/33 strain of influenza virus (H1N1 subtype) in MDBK cells using cell protection assay; expressed as >10-100 ppm. The class given is functional, cell-based. As to conditions: Bos taurus.
Assay [6] can be described thus: Antiviral activity against A/WSN/33 strain of influenza virus (H1N1 subtype) in MDBK cells using cell protection assay; expressed as 100 ppm. The class given is functional, cell-based. Conditions: Bos taurus.
Assay [7] can be described thus: Antiviral activity against A/WSN/33 strain of influenza virus (H1N1 subtype) in MDBK cells using cell protection assay. It counts as functional, cell-based. As to conditions: Bos taurus.

Each structure is given as a SMILES string. Converted amounts (≈) assume the structure as drawn.

Regarding `CO/N=C(/C#N)C(=O)NCC1=NOC(C(C)(C)C)C1` (stereo not given), the concentration for a half-maximal effect (EC50) (usually the concentration at which the effect is half-maximal) in assay [1] is 100 µg/mL (≈ 376 µM). For the same molecule, in assay [2], the 50% cytotoxic concentration (CC50) (usually the concentration at which the toxic effect on the cells reaches its halfway point) is over 100 µg/mL.

Take `CO/N=C(/C#N)C(=O)NCC1=NOC(C)(C)C1`: the CC50 in assay [2] is over 100 µg/mL. Also, the EC50 in “cells” is over 100 µg/mL.

Turning to `CO/N=C(\C#N)C(=O)NC1=NOC(C(C)(C)C)C1` (stereo not given), in assay [2], the half-maximal cytotoxic concentration (CC50) was over 100 µg/mL. For the same molecule, in the assay “cells”, the EC50 was over 100 µg/mL.

Consider `CC(C)O/N=C(\C#N)C(=O)NCC1=NOC(C(C)(C)C)C1` (stereo not given), for which the CC50 in assay [2] was over 100 µg/mL. Besides, the response in assay [3] was half-maximal at 10 µg/mL (≈ 34 µM) (EC50).

As for `CO/N=C(\C#N)C(=O)NCC1=NOC(C(C)(C)C)C1` (stereo not given), the CC50 in assay [2] was over 100 µg/mL. The response in assay [3] was half-maximal at 10 µg/mL (≈ 37.6 µM) (EC50).

Take `CO/N=C(\C#N)C(=O)NCC1=NOC(C)C1` (stereo not given): in assay [4], the CC50 was over 100 µg/mL. In assay [1], this molecule had a concentration giving a half-maximal response (EC50) of 100 µg/mL (≈ 446 µM).

In turn, `C=CCO/N=C(\C#N)C(=O)NCC1=NOC(c2ccccc2)(c2ccccc2)C1` showed a 50% effective concentration (EC50) in assay [5] of over 100 µg/mL. Further, half-maximal cytotoxicity in assay [2] (CC50) was put at 100 µg/mL (≈ 257 µM).

Molecule `C=CCO/N=C(\C#N)C(=O)NCc1cc(C(C)(C)C)on1` registered a half-maximal effective concentration (EC50) in assay [1] of 100 µg/mL (≈ 344 µM). The CC50 in assay [2] was found to be 100 µg/mL (≈ 344 µM).

In turn, `CO/N=C(\C#N)C(=O)NCc1cccnc1` registered a CC50 in assay [2] of over 100 µg/mL. Besides, the EC50 in the assay “cells” was over 100 µg/mL.

For `C=CCO/N=C(/C(=O)NCC1=NOC(C(C)(C)C)C1)c1ccccc1` (stereo not given), in assay [2], the CC50 was over 100 µg/mL. In assay [6], the EC50 was determined as 100 µg/mL (≈ 291 µM).

Consider `CO/N=C(\C#N)C(=O)NCC1=NOC(C)(C)C1`, for which a half-maximal effect in assay [1] (EC50) was put at 100 µg/mL (≈ 420 µM). Besides, the CC50 in assay [2] is over 100 µg/mL.

For `CO/N=C(\C#N)C(=O)NCc1cccs1`, in assay [2], the 50% cytotoxic concentration (CC50) is over 100 µg/mL. This molecule also registered a concentration for a half-maximal effect (EC50) in “cells” of over 100 µg/mL.

With `CO/N=C(\C#N)C(=O)NC(=O)OC(C)(C)C`, in assay [2], the 50% cytotoxic concentration (CC50) is over 100 µg/mL. For the same molecule, the half-maximal effective concentration (EC50) in the assay “cells” was over 100 µg/mL.

Take `CC(C)(C)C1CC(CNC(=O)/C(C#N)=N/OCc2cccnc2)=NO1` (stereo not given): in assay [2], the cytotoxic concentration (CC50) was over 100 µg/mL. The molecule further showed an EC50 in the assay “cells” of over 100 µg/mL.

As for `CCO/N=C(\C#N)C(=O)NCC1=NOC(C(C)(C)C)C1` (stereo not given), the CC50 in assay [2] is over 100 µg/mL. This molecule also came in with an EC50 in assay [3] of 10 µg/mL (≈ 35.7 µM).

`CC(C)(C)C1CC(CNC(=O)/C(C#N)=N/OCC#N)=NO1` (stereo not given) registered an EC50 in assay [1] of 100 µg/mL (≈ 343 µM). For the same molecule, the 50% cytotoxic concentration (CC50) in assay [2] is over 100 µg/mL.

`C=CCO/N=C/C(=O)NCC1=NOC(C(C)(C)C)C1` (stereo not given) registered a half-maximal cytotoxic concentration (CC50) in assay [2] of over 100 µg/mL. The concentration for a half-maximal effect (EC50) in assay [6] came to 100 µg/mL (≈ 374 µM).

On to `C=CCO/N=C(\C#N)C(=O)NCC1=NOC(c2ccccc2)C1` (stereo not given), for which it took 100 µg/mL (≈ 320 µM) to reach a half-maximal effect in assay [1] (EC50). Besides, the 50% cytotoxic concentration (CC50) in assay [2] is 100 µg/mL (≈ 320 µM).

In turn, `C=CCO/N=C(\C)C(=O)NCC1=NOC(C(C)(C)C)C1` (stereo not given) yielded a cytotoxic concentration (CC50) in assay [2] of over 100 µg/mL. Moreover, in assay [7], the EC50 came to 6 µg/mL (≈ 21.3 µM).

`CC(C)(C)C1CC(CNC(=O)/C(C#N)=N/OCc2ccccc2)=NO1` (stereo not given) yielded a 50% effective concentration (EC50) in assay [1] of 100 µg/mL (≈ 292 µM). Moreover, the midpoint of cytotoxicity in assay [2], the CC50, lay at 100 µg/mL (≈ 292 µM).

With `CO/N=C(\C#N)C(=O)NCC1CC(C(C)(C)C)=NO1` (stereo not given), in assay [1], the concentration for a half-maximal effect (EC50) came out at 100 µg/mL (≈ 376 µM). The molecule further returned a half-maximal cytotoxic concentration (CC50) in assay [2] of over 100 µg/mL.

The molecule `C=CCO/N=C(\CC)C(=O)NCC1=NOC(C(C)(C)C)C1` (stereo not given) had a CC50 in assay [2] of over 100 µg/mL. This molecule had a 50% effective concentration (EC50) in assay [6] of 100 µg/mL (≈ 339 µM).

With `C=CCO/N=C(\C#N)C(=O)NCC1=NOC(C(C)(C)C)C1` (stereo not given), the half-maximal cytotoxic concentration (CC50) in assay [2] is over 100 µg/mL. This molecule yielded a 50% effective concentration (EC50) in assay [7] of 3 µg/mL (≈ 10.3 µM).

Regarding `NC12CC3CC(CC(C3)C1)C2` [AMANTADINE], the concentration giving a half-maximal response (EC50) in assay [1] worked out at 100 µg/mL (≈ 661 µM). This molecule also displayed a half-maximal cytotoxic concentration (CC50) in assay [2] of over 100 µg/mL.

`CCNC(=O)NC(=O)/C(C#N)=N/OC` [CYMOXANIL] had a 50% cytotoxic concentration (CC50) in assay [2] of over 100 µg/mL. Also, the EC50 in the assay “cells” is over 100 µg/mL.
